Targets include Carbonic anhydrase 9 (Homo sapiens, UniProt Q16790); Carbonic anhydrase 1 (Homo sapiens, UniProt P00915); Carbonic anhydrase 2 (Homo sapiens, UniProt P00918); Carbonic anhydrase 12 (Homo sapiens, UniProt O43570).

A word on the Ki: it is a dissociation constant, usually derived from enzyme kinetics or from competition with a known ligand. Higher therefore signals a looser hold on the target.

Sequence of Carbonic anhydrase 12 (O43570 whole entry): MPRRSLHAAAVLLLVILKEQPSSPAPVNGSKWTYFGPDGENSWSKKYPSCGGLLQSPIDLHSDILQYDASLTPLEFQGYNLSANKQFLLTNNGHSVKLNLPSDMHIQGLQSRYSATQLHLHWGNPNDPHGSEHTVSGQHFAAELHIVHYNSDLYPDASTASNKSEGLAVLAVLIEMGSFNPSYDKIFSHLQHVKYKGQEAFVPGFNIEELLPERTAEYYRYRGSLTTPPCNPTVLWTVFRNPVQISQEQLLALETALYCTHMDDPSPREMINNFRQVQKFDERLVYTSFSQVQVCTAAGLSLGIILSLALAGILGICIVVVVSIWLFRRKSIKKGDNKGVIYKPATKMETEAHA
Sequence of Carbonic anhydrase 1 (P00915 whole entry): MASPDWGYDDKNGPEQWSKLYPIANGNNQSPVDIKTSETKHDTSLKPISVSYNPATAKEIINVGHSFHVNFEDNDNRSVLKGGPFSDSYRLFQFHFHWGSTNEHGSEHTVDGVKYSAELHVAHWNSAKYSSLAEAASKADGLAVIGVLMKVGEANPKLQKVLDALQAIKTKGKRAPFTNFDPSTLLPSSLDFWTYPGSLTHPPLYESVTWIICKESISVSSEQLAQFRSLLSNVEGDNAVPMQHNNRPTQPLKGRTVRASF
Description for Carbonic anhydrase 12: Inhibition of human carbonic anhydrase-12 assessed as CO2 hydration activity by stopped-flow method
Description for Carbonic anhydrase 2: Inhibition of human carbonic anhydrase-2 assessed as CO2 hydration activity by stopped-flow method
Description for Carbonic anhydrase 9: Inhibition of human carbonic anhydrase-9 assessed as CO2 hydration activity by stopped-flow method

Take `COC(=O)c1ccc(-c2ccc(S(N)(=O)=O)cc2)cc1`: the Ki on Carbonic anhydrase 9 was 9.3 nM; at Carbonic anhydrase 1 it was 77 nM; on Carbonic anhydrase 2, 9 nM; at Carbonic anhydrase 12, 35.2 nM.
Take `CC(C)(C)OC(=O)c1ccc(-c2ccc(S(N)(=O)=O)cc2)cc1`: the Ki at Carbonic anhydrase 1 is 78.8 nM; at Carbonic anhydrase 2, 42 nM; at Carbonic anhydrase 12, 44.9 nM.
`NS(=O)(=O)c1ccc(-c2ccc(C(=O)O)cc2)cc1`: the Ki at Carbonic anhydrase 9 worked out at 3.6 nM; at Carbonic anhydrase 1, 340 nM; at Carbonic anhydrase 2, 6.2 nM; on Carbonic anhydrase 12, 52.3 nM.
In the same order, the values of `NC(=O)c1ccc(-c2ccc(S(N)(=O)=O)cc2)cc1` are 823 nM, 67.5 nM, 5.3 nM and 8.3 nM.
As to `NS(=O)(=O)c1ccc(-c2ccc(C(=O)NCCO)cc2)cc1`, the results for the Ki at Carbonic anhydrase 1, at Carbonic anhydrase 2 and on Carbonic anhydrase 12 were 46.7 nM, 11.5 nM and 26.2 nM, respectively.
For the compound `NS(=O)(=O)c1ccc(-c2ccc([N+](=O)[O-])cc2)cc1`, the Ki at Carbonic anhydrase 9 is 9.6 nM; on Carbonic anhydrase 1, 62.2 nM; on Carbonic anhydrase 2 it was 11.6 nM; at Carbonic anhydrase 12, 7.4 nM.
Turning to `Nc1ccc(-c2ccc(S(N)(=O)=O)cc2)cc1`, the figures for the Ki on Carbonic anhydrase 1, at Carbonic anhydrase 2 and on Carbonic anhydrase 12 were 78.5 nM, 9.1 nM and 7.7 nM, respectively.
In the same order, the values of `NS(=O)(=O)c1ccc(-c2ccc(C(=O)c3ccccc3)cc2)cc1` are 1630 nM, 4.3 nM and 7.4 nM.
For the compound `NS(=O)(=O)c1ccc(-c2ccc(C(O)c3ccccc3)cc2)cc1` (stereo unspecified), the Ki on Carbonic anhydrase 9 is 8.9 nM; on Carbonic anhydrase 1 it was 52.7 nM; at Carbonic anhydrase 2, 4.9 nM; at Carbonic anhydrase 12, 81.1 nM.
For `NS(=O)(=O)c1ccc(-c2ccc(Cc3ccccc3)cc2)cc1`, in that order: 519 nM, 75.3 nM, 454 nM and 77.2 nM.
As for `COC(=O)c1ccc(C(=O)c2ccc(-c3ccc(S(N)(=O)=O)cc3)cc2)cc1`, the Ki on Carbonic anhydrase 9 stood at 42.3 nM; at Carbonic anhydrase 1 it was 73.8 nM; on Carbonic anhydrase 2, 7.8 nM; at Carbonic anhydrase 12, 7.3 nM.
Regarding `COC(=O)c1ccc(C(O)c2ccc(-c3ccc(S(N)(=O)=O)cc3)cc2)cc1` (stereo unspecified), the Ki was determined as 6.3 nM at Carbonic anhydrase 1, 6.6 nM at Carbonic anhydrase 2 and 6.7 nM at Carbonic anhydrase 12.
As to `COC(=O)c1ccc(Cc2ccc(-c3ccc(S(N)(=O)=O)cc3)cc2)cc1`, the Ki on Carbonic anhydrase 9 was 76.7 nM; at Carbonic anhydrase 1, 122 nM; at Carbonic anhydrase 2, 50.6 nM; at Carbonic anhydrase 12 it was 237 nM.
With `NS(=O)(=O)c1ccc(-c2ccc(C(=O)c3ccc(C(=O)O)cc3)cc2)cc1`, the Ki on Carbonic anhydrase 9 was 8.5 nM; at Carbonic anhydrase 1 it was 263 nM; at Carbonic anhydrase 2, 4.8 nM; on Carbonic anhydrase 12 it was 45.5 nM.
For the compound `NS(=O)(=O)c1ccc(-c2ccc(C(O)c3ccc(C(=O)O)cc3)cc2)cc1` (stereo unspecified), the Ki on Carbonic anhydrase 9 was determined as 450 nM; on Carbonic anhydrase 1, 72.5 nM; at Carbonic anhydrase 2, 814 nM; on Carbonic anhydrase 12 it was 93.9 nM.
Turning to `NS(=O)(=O)c1ccc(-c2ccc(Cc3ccc(C(=O)O)cc3)cc2)cc1`, the Ki amounted to 31.4 nM on Carbonic anhydrase 9, 236 nM at Carbonic anhydrase 1 and 6.9 nM on Carbonic anhydrase 2.
As for `NS(=O)(=O)c1ccc(-c2ccc(C(=O)c3ccc([N+](=O)[O-])cc3)cc2)cc1`, the Ki at Carbonic anhydrase 1 was 80.1 nM; on Carbonic anhydrase 2, 63.3 nM; on Carbonic anhydrase 12 it was 70.6 nM.
As to `NS(=O)(=O)c1ccc(-c2ccc(C(O)c3ccc([N+](=O)[O-])cc3)cc2)cc1` (stereo unspecified), the Ki at Carbonic anhydrase 9 was 678 nM; on Carbonic anhydrase 2, 5.9 nM.
As for `NS(=O)(=O)c1ccc(-c2ccc(Cc3ccc([N+](=O)[O-])cc3)cc2)cc1`, the Ki on Carbonic anhydrase 9 was determined as 705 nM; at Carbonic anhydrase 1, 70.5 nM; on Carbonic anhydrase 2, 39.7 nM; on Carbonic anhydrase 12, 9.3 nM.
On to `Nc1ccc(Cc2ccc(-c3ccc(S(N)(=O)=O)cc3)cc2)cc1`, for which the Ki on Carbonic anhydrase 9 was determined as 6 nM; on Carbonic anhydrase 1 it was 589 nM; at Carbonic anhydrase 2, 5.2 nM; at Carbonic anhydrase 12, 8.1 nM.

For the origin of these results see ChEMBL document CHEMBL3632495, “Discovery of 1,1'-Biphenyl-4-sulfonamides as a New Class of Potent and Selective Carbonic Anhydrase XIV Inhibitors” (J Med Chem, 2015).
